Results reported in patent US5843758A, “Enzyme based bioremediation” (priority 1994, dated 1998).
Where a chain is given by its changes, count along the chain named.

Key:
[1] = system: CFVP hydrolysing enzyme (E3 esterase) in homogenate of OP-resistant L. cuprina strain RM2-6 [der-S]; test: Radiometric partition assay for OP hydrolysis, whole-fly homogenate; assay type: biochemical, Lucilia cuprina; conditions: preliminary kinetic experiments
Experimental: Enzyme samples were diluted in 0.1M imidazole-HCl buffer pH 7.0 ("imidazole buffer") to a final volume of 25 μl. Reactions were started by the addition of 25 μl of [^14 C-ethyl]-chlorfenvinphos (CFVP, 306.5 MBq/mmole, Internationale Isotope Munchen) diluted in imidazole buffer from a 7.5 mM stock solution in ethanol. The final chlorfenvinphos concentration was typically 50 or 75 μM for routine assays but can be much lower for the determination of kinetic parameters. The reaction was incubated at 30° C. and stopped by the addition of 300 μl dichloromethane and 150 µl of imidazole buffer containing 10 μM diethylphosphate (Eastman Kodak) followed by vigourous vortex mixing. The reactions were centrifuged to separate phases and 150 μl of the upper, aqueous phase was taken for scintillation counting to determine the amount of ^14 C-diethylphosphate produced by hydrolysis of CFVP. Incubations with boiled enzyme were also performed to control for non-enzymic hydrolysis of CFVP.
(i) Whole-fly homogenates: Assays were carried out on whole-fly homogenates using 50 μM CFVP. […] The boiled control hydrolysed CFVP at a rate of 0.48 pmol/min/mg protein. Homogenates derived from an OP-susceptible strain (LS2) hydrolysed CFVP at the same rate as the boiled control, indicating the absence of CFVP hydrolytic enzymic activity in OP-susceptible L. cuprina.

[2] = molecular target: T1, Lucilia cuprina LcαE7 (E3) esterase, OP resistant allele, clone Lc7L103D (Gly to Asp at amino acid position 137) (Lucilia cuprina, UniProt Q25252, form not given/G137D); test: Radiometric partition assay for OP hydrolysis, enzyme expressed in vitro (baculovirus/Sf9); assay type: biochemical
T1 sequence (Q25252 1-570 G137D): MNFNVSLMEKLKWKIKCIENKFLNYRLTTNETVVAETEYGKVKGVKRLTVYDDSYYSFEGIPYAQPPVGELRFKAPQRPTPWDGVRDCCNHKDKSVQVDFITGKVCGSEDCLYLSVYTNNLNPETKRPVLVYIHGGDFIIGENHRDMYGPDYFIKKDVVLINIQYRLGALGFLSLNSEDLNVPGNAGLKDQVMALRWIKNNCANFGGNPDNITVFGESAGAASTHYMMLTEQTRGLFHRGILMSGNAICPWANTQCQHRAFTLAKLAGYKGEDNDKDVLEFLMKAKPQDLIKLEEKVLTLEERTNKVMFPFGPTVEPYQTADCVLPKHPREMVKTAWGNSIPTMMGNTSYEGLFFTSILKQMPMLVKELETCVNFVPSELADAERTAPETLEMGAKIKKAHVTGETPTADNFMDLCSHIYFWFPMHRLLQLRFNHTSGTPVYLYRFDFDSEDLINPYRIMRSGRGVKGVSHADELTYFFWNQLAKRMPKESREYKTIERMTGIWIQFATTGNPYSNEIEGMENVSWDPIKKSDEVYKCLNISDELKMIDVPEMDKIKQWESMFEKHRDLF
Experimental: (§1) The susceptible (clone Lc743) and resistant (clone Lc7L103D) alleles of LcαE7 were cloned into the baculovirus transfer vector, Bacpac 8 (Clonetech), 3' of the polyhedrin promoter. Transfections were conducted using a lipofection method with polybrene (Sigma) according to King, L. A. & Possee, R. D. (The Baculovirus Expression System: A Laboratory Guide, Chapman & Hall, London, 1992). One μg of DNA of each of the resulting constructs together with 200 ng of Bacpac 6 baculovirus DNA (Clonetech), linearised by digestion with the restriction enzyme BSU 36I (Progema), was incubated in a solution of hepes buffered saline containing 0.5% polybrene (Sigma) at room temperature for 10 minutes. The solution was then used to transfect a single well of a six well tissue culture plate pre-seeded 2 hr previously with 10^4 Sf9 (Spodoptera frugiperda) cells in 1.5 ml Grace's medium (King, L. A. & Possee, R. D, The Baculovirus Expression System: A Laboratory Guide, Chapman & Hall, London, 1992). After 12 hr, the medium was removed, made up to 10% DMSO and placed back over the cells for 5 minutes. This was then replaced with 3 ml of Grace's medium containing 10% fetal calf serum. Construct plus polybrene, linearised virus plus polybrene and polybrene only controls were conducted in parallel with transfections. […]

[3] = molecular target: T2, Lucilia cuprina LcαE7 (E3) esterase, OP susceptible allele, clone Lc743 (printed Lc473), SEQ ID NO:3 (Lucilia cuprina, UniProt Q25252); test: Malathion hydrolysis / time-dependent inhibition of the enzyme by malathion; assay type: biochemical; conditions: in the presence of 4 μM malathion; supernatant of cells expressing the OP susceptible allele
T2 sequence (Q25252 1-570): T1 sequence (Q25252 1-570 G137D) with D137G
Experimental: as §1, with “1992).” for “1992). After 12 hr, the medium was removed, made up to 10% DMSO and placed back over the cells for 5 minutes. This was then replaced with 3 ml of Grace's medium containing 10% fetal calf serum. Construct plus polybrene, linearised virus plus polybrene and polybrene only controls were conducted in parallel with transfections.”
Initial rates of malathion hydrolysis by the supernatant of cells expressing the OP susceptible allele, […], was 3.3 pmole/min/μl from an initial concentration of 4 μM malathion. […] Malathion hydrolysis (0.5 pmoles/min/μl) was also detected in the supernatant of cells expressing the D. melanogaster homologue, DmaE7.

Row | Compound | Km ([1]; RM2-6 homogenate, CFVP hydrolysis, pH 7.0, 30° C.) [µM] | Vmax for the hydrolysis of CFVP ([1]; homogenates of the resistant strain) | Km ([2]; cells expressing the Lc7L103D allele, CFVP hydrolysis, imidazole-HCl pH 7.0, 30° C., preliminary kinetic experiments, read-out: Km of the CFVP hydrolysing enzyme) [µM] | Vmax of CFVP hydrolysis ([2]; cells expressing the OP resistant allele Lc7L103D, pH 7.0, 30° C.) | half-life of enzyme inhibition by malathion [3]
1 | CCOP(=O)(OCC)OC(=CCl)c1ccc(Cl)cc1Cl [CFVP, chlorfenvinphos] | ~16 | approximately 13 pmol/min/mg protein | ~16 | approximately 2.0 nmol/min/mg protein | 
2 | CCOC(=O)CC(SP(=S)(OC)OC)C(=O)OCC (centres unmarked) [malathion] |  |  |  |  | about 20 minutes
